Results on two compounds are retold here after patent publication US20060276844A1, “Ingestible device for nitric oxide production in tissue” (priority 2005, published 2006).

Assay [1] concerns rat jejunum. Description: NO-signal-enhanced drug permeation in rat jejunum in vitro, with NOS inhibitor L-NAME (FIGS. 2-3). Type of assay: in vitro ADME. The note with it: 1 mM L-NAME plus NO signal (5 mA, 1 ms, 18 Hz), rat jejunum segments. An excerpt:
Reference is made to FIGS. 2 and 3, which are graphs showing in vitro experimental results measured in accordance with an embodiment of the present invention. These experiments assessed the effect of the application of an electrical signal configured to enhance NO-associated drug permeation, which is inhibited by non-specific NOS inhibitor NG-Nitro-L-Arginine methyl ester (L-NAME) in rat jejunum in vitro. The NO-releasing electrical signal (hereinbelow, the “NO signal”) was applied with the following parameters: an amplitude of 5 mA, a pulse width of 1 ms, and a frequency of 18 Hz. In the experiment shown in FIG. 2, 1 mg/ml octreotide was applied to 11 segments of rat jejunum. The NO signal alone was applied to six of the segments, 1 mM L-NAME alone was applied to two of the segments, and the NO signal and 1 mM L-NAME were applied to three of the segments. In the experiment shown in FIG. 3, 1 mg/ml leuprolide was applied to 14 segments of rat jejunum. The NO signal alone was applied to three of the segments, 1 mM L-NAME alone was applied to two of the segments, the NO signal and 1 mM L-NAME were applied to three of the segments, and no treatment was applied to the remaining six segments.

Assay [2] has as its system rat jejunum. Description: Octreotide permeation in rat jejunum in vitro: electrical stimulation versus NO donor (FIG. 4). The assay is classed as in vitro ADME. As for the experimental part:
FIG. 4 is a graph showing in vitro experimental results measured in accordance with an embodiment of the present invention. In this experiment, the permeation-enhancing effect of electrical stimulation in rat jejunum in vitro was compared with the effect of an NO donor, molsidomine (SIN-10) (exogenous nitric oxide). The NO signal alone was applied to six segments of rat jejunum, 1 mM SIN-10 alone was applied to four segments, the NO signal and 1 mM SIN-10 were applied to three segments, and no treatment was applied to six segments.

As to `COC(=O)[C@@H](N)CCCNC(=N)N[N+](=O)[O-]` [L-NAME, NG-Nitro-L-Arginine methyl ester], in the assay on rat jejunum [1] (FIG. 2, 1 mg/ml octreotide), the “effect on NO-signal-enhanced drug permeation (octreotide)” value is reported as “nearly prevented”. In addition, the “effect on NO-signal-enhanced drug permeation (leuprolide)” value with rat jejunum [1] (FIG. 3, 1 mg/ml leuprolide) is “nearly prevented”.
For the compound `CCOC(=O)[N-]c1cn(N2CCOCC2)n[o+]1` [SIN-10, molsidomine], the “rate of octreotide transepithelial transport compared with electrically-induced absorption” value in the assay with rat jejunum [2] (1 mM SIN-10 alone) is listed as “similar”. The “effect of combination with electrical stimulation on enhanced permeation of octreotide, versus electrical stimulation alone” value in the assay on rat jejunum [2] (NO signal plus 1 mM SIN-10) is reported as “did not augment”.
